Key:
[1] = test system: histone deacetylase (HDAC), nuclear extract of Hela cells; experiment: Deacetylase activity on nuclear extract of HeLa cells (Fluor de Lys kit); assay type: biochemical, human; conditions: percent inhibition relative to control without inhibitor, compound at 0.1 μM
Description: (§1) The activity of the compounds as histone deacetylase (HDAC) inhibitors was measured using an in vitro acetylation assay. The compounds were then evaluated as inhibitors of proliferation of human tumor cell cultures.
Deacetylase Activity on Nuclear Extract of Hela Cells (Human Cervical Cancer Cell)
The assay (Fluor de Lys™ kit, BioMol) is divided into two steps: in the first step the substrate which comprises an acetylated lysine residue is reacted with the nuclear extract (HeLa) containing the enzymatic activity in the presence and absence of inhibitors. In the second step a fluorogenic reagent is added which highlights the deacetylated residues. A reduction in fluorescence is obtained where there has been inhibition of the deacetylase activity. The result is finally expressed as percent inhibition relative to the control without inhibitor at a concentration of 0.1 μM.

[2] = test system: Human colon carcinoma cells HCT-116; experiment: Cytotoxic activity on culture of human colon carcinoma cells HCT-116 (Alamar Blue); assay type: cell-based; conditions: HCT-116 cells, 72 hours after addition of compounds, Alamar Blue viability
Description: as §1
24 hours after seeding, the compounds at different concentrations are added. […] 72 hours after addition of the compounds, cell viability is measured by means of the dye Alamar Blue.

| SMILES | % inhib. 0.1 μM [1] [%] | IC50 ([2]; Homo sapiens, HCT-116, 72 h) [nM] | IC50 [2] [nM] |
| --- | --- | --- | --- |
| O=C(CCCC1CCN(C(=O)NCc2ccccc2F)CC1)NO [Ex 45, 4-(3-Hydroxycarbamoyl-propyl)-piperidine-1-carboxylic acid 2-fluoro-benzylamide] | 79 | 890 |  |
| O=C(CCCC1CCN(C(=O)CCNCc2ccccc2)CC1)NO [Ex 164, 4-[1-(3-Benzylamino-propionyl)-piperidin-4-yl]-N-hydroxy-butyramide] | 51 | 600 |  |
| O=C(CCCC1CCN(C(=O)NCc2ccco2)CC1)NO [Ex 106, 4-(3-Hydroxycarbamoyl-propyl)-piperidine-1-carboxylic acid (furan-2-ylmethyl)-amide] | 52 | 710 |  |
| N[C@@H](CC(=O)N1CCC(CCCC(=O)NO)CC1)c1ccccc1 [Ex 112, 4-[1-(3-(S)-Amino-3-phenyl-propionyl)-piperidin-4-yl]-N-hydroxy-butyramide] | 55 | 310 |  |
| O=C(CCCC1CCN(C(=O)NCc2ccc(-c3ccsc3)cc2)CC1)NO [Ex 190, N-(4-(thiophen-3-yl)benzyl)-4-(4-(hydroxyamino)-4-oxobutyl)piperidine-1-carboxamide] | 69 | 480 |  |
| O=C(CCCC1CCN(C(=O)NCc2csc3ccc(Cl)cc23)CC1)NO [Ex 188, N-(5-Chloro-benzo[b]thiophen-3-ylmethyl)-4-(4-(hydroxyamino)-4-oxobutyl)piperidine-1-carboxamide] | 50 | 210 |  |
| O=C(CCCC1CCN(C(=O)CCNc2cccc3ccccc23)CC1)NO [Ex 186, 4-[1-(3-(1)Naphtylamino-propionyl)-piperidin-4-yl]-N-hydroxy-butyramide] | 81 |  | 360 |
| N[C@H](CC(=O)N1CCC(CCCC(=O)NO)CC1)c1ccc2ccccc2c1 [Ex 111, 4-[1-(3-(R)-Amino-3-naphthalen-2-yl-propionyl)-piperidin-4-yl]-N-hydroxy-butyramide] | 66 | 550 |  |
| N[C@H](CC(=O)N1CCC(CCCC(=O)NO)CC1)Cc1csc2ccccc12 [Ex 146, 4-[1-(3-(S)-Amino-4-benzo[b]thiophen-3-yl-butyryl)-piperidin-4-yl]-N-hydroxy-butyramide] | 68 | 60 |  |
| O=C(CCCC1CCN(C(=O)NCCCc2c[nH]c3ccccc23)CC1)NO [Ex 170, N-(3-(1H-indol-3-yl)propyl)-4-(4-(hydroxyamino)-4-oxobutyl)piperidine-1-carboxamide] | 51 | 200 |  |
| N[C@@H](CCc1ccccc1)C(=O)N1CCC(CCCC(=O)NO)CC1 [Ex 105, 4-[1-(2-(S)-Amino-4-phenyl-butyryl)-piperidin-4-yl]-N-hydroxy-butyramide] | 59 |  | 950 |
| N[C@@H](CC(=O)N1CCC(CCCC(=O)NO)CC1)c1ccc2ccccc2c1 [Ex 149, 4-[1-(3-(S)-Amino-3-naphthalen-2-yl-propionyl)-piperidin-4-yl]-N-hydroxy-butyramide] | 62 |  | 130 |
| O=C(CCCC1CCN(C(=O)[C@@H](CCO)NC(=O)c2cc3ccccc3s2)CC1)NO [Ex 110, Benzo[b]thiophene-2-carboxylic acid{3-hydroxy-1-(R)-[4-(3-hydroxycarbamoyl-propyl)-piperidine-1-carbonyl]-propyl}-amide] | 54 |  | 260 |
| O=C(CCCC1CCN(C(=O)Nc2cccc(Cl)c2F)CC1)NO [Ex 83, 4-(3-Hydroxycarbamoyl-propyl)-piperidine-1-carboxylic acid (3-chloro-2-fluoro-phenyl)-amide] | 58 | 670 |  |
| O=C(CCCC1CCN(C(=O)CNC(=O)c2cc3ccccc3s2)CC1)NO [Ex 79, Benzo[b]thiophene-2-carboxylic acid {2-[4-(3-hydroxycarbamoyl-propyl)-piperidin-1-yl]-2-oxo-ethyl}-amide] | 70 | 770 |  |
| O=C(CCCC1CCN(C(=O)Nc2cccc3c2CCCC3)CC1)NO [Ex 198, 4-(3-Hydroxycarbamoyl-propyl)-piperidine-1-carboxylic acid (5,6,7,8-tetrahydro-naphthalen-1-yl)-amide] | 77 | 400 |  |
| N[C@@H](CC(=O)N1CCC(CCCC(=O)NO)CC1)c1cccc(F)c1 [Ex 175, 4-{1-[3-(S)-Amino-3-(3-fluoro-phenyl)-propionyl]-piperidin-4-yl}-N-hydroxy-butyramide] | 70 | 600 |  |
| O=C(CCCC1CCN(C(=O)Nc2ccc(-c3csnn3)cc2)CC1)NO [Ex 178, 4-(3-Hydroxycarbamoyl-propyl)-piperidine-1-carboxylic acid (4-[1,2,3]thiadiazol-4-yl-phenyl)-amide] | 45 | 300 |  |
| N[C@@H](CC(=O)N1CCC(CCCC(=O)NO)CC1)Cc1ccc2ccccc2c1 [Ex 144, 4-[1-(3-(R)-Amino-4-naphthalen-2-yl-butyryl)-piperidin-4-yl]-N-hydroxy-butyramide] | 69 | 240 |  |
| O=C(CCCC1CCN(C(=O)[C@H](CO)NC(=O)c2ccc3sccc3c2)CC1)NO [Ex 114, Benzo[b]thiophene-5-carboxylic acid{2-[4-(3-hydroxycarbamoyl-propyl)-piperidin-1-yl]-1-(S)-hydroxymethyl-2-oxo-ethyl}-amide] | 61 |  | 340 |
| O=C(CCCC1CCN(C(=O)[C@H](CO)NC(=O)c2cc3ccccc3s2)CC1)NO [Ex 101, Benzo[b]thiophene-2-carboxylic acid {2-[4-(3-hydroxycarbamoyl-propyl)-piperidin-1-yl]-1-(S)-hydroxymethyl-2-oxo-ethyl}-amide] | 64 | 510 |  |
| N[C@H](CC(=O)N1CCC(CCCC(=O)NO)CC1)c1cccc2ccccc12 [Ex 159, 4-[1-(3-(R)-Amino-3-naphthalen-1-yl-propionyl)-piperidin-4-yl]-N-hydroxy-butyramide] | 79 | 200 |  |
| N[C@@H](CCc1ccccc1)C(=O)N1CCC(CCCC(=O)NO)CC1 [Ex 82, 4-[1-(2-(S)-Amino-4-phenyl-butyryl)-piperidin-4-yl]-N-hydroxy-butyramide] | 62 | 530 |  |
| O=C(CCCC1CCN(C(=O)Nc2cccc(-c3ccccc3)c2)CC1)NO [Ex 150, 4-(3-Hydroxycarbamoyl-propyl)-piperidine-1-carboxylic acid biphenyl-3-ylamide] | 57 | 180 |  |
| Cc1ccc(NC(=O)N2CCC(CCCC(=O)NO)CC2)cc1 [Ex 22, 4-(3-Hydroxycarbamoyl-propyl)-piperidine-1-carboxylic acid p tolylamide] | 67 |  | 940 |
| O=C(CCCC1CCN(C(=O)NCc2csc3ccccc23)CC1)NO [Ex 157, N-(benzo[b]thiophen-3-ylmethyl)-4-(4-(hydroxyamino)-4-oxobutyl)piperidine-1-carboxamide] | 68 | 600 |  |
| O=C(CCCC1CCN(C(=O)Nc2ccc(Cl)cc2F)CC1)NO [Ex 90, 4-(3-Hydroxycarbamoyl-propyl)-piperidine-1-carboxylic acid (4-chloro-2-fluoro-phenyl)-amide] | 56 | 450 |  |

— US20080207694A1, “Hydroxamates as Histone Deacetylase Inhibitors and Pharmaceutical Formulations Containing Them” (priority 2005, published 2008)
